Source: PubChem BioAssay (NCI)
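Step 1: Grow cells in 96-well plates. Step 2: Expose to compound for 48 hours at 5 concentrations. Step 3: Interpolate endpoints linearly; if unreached, use highest concentration. Abbreviation: GI50, concentration required for 50% inhibition of growth. TGI: total growth inhibition.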

Key:
Assay in all cases: DTP human tumour cell line panel, 48 h; in the data active means GI50 below about 0.43 µM; inactive means the rest
[1] = tested on: 786-0 renal
[2] = tested on: A498 renal
[3] = tested on: A549 NSCLC
[4] = tested on: ACHN renal
[5] = tested on: CAKI-1 renal
[6] = tested on: CCRF-CEM leukemia
[7] = tested on: COLO 205 colon
[8] = tested on: DU-145 prostate
[9] = tested on: EKVX NSCLC
[10] = tested on: HCC-2998 colon
[11] = tested on: HCT-116 colon
[12] = tested on: HCT-15 colon
[13] = tested on: HL-60(TB) leukemia
[14] = tested on: HOP-62 NSCLC
[15] = tested on: HOP-92 NSCLC
[16] = tested on: HS 578T breast
[17] = tested on: HT29 colon
[18] = tested on: IGROV1 ovarian
[19] = tested on: K-562 leukemia
[20] = tested on: KM12 colon
[21] = tested on: LOX IMVI melanoma
[22] = tested on: M14 melanoma
[23] = tested on: MALME-3M melanoma
[24] = tested on: MCF7 breast
[25] = tested on: MDA-MB-231 breast
[26] = tested on: MDA-MB-435
[27] = tested on: MOLT-4 leukemia
[28] = tested on: NCI-H226 lung
[29] = tested on: NCI-H23 lung
[30] = tested on: NCI-H460 lung
[31] = tested on: NCI-H522 lung
[32] = tested on: NCI/ADR-RES ovarian
[33] = tested on: OVCAR-3 ovarian
[34] = tested on: OVCAR-4 ovarian
[35] = tested on: OVCAR-5 ovarian
[36] = tested on: OVCAR-8 ovarian
[37] = tested on: PC-3 prostate
[38] = tested on: RPMI-8226 leukemia
[39] = tested on: RXF 393 renal
[40] = tested on: SF-268 CNS
[41] = tested on: SF-295 CNS
[42] = tested on: SF-539 CNS
[43] = tested on: SK-MEL-2 melanoma
[44] = tested on: SK-MEL-28 melanoma
[45] = tested on: SK-MEL-5 melanoma
[46] = tested on: SK-OV-3 ovarian
[47] = tested on: SN12C renal
[48] = tested on: SNB-19 CNS
[49] = tested on: SNB-75 CNS
[50] = tested on: SR leukemia
[51] = tested on: SW-620 colon
[52] = tested on: T-47D breast
[53] = tested on: TK-10 renal
[54] = tested on: U251 CNS
[55] = tested on: UACC-257 melanoma
[56] = tested on: UACC-62 melanoma
[57] = tested on: UO-31 renal
[58] = tested on: BT-549 breast

CN1CCN(C)C1c1ccc(C2N(C)CCN2C)cc1
inactive: GI50 [1] > 100 µM | GI50 [2] 14.4 µM | GI50 [3] > 100 µM | GI50 [4] 80 µM | GI50 [5] > 100 µM | GI50 [6] 29.8 µM | GI50 [7] 23 µM | GI50 [8] 30.2 µM | GI50 [9] > 100 µM | GI50 [10] 40.5 µM | GI50 [11] 17.8 µM | GI50 [12] 77.7 µM | GI50 [13] 37.7 µM | GI50 [14] 82.8 µM | GI50 [15] > 100 µM | GI50 [16] 64 µM | GI50 [17] 21.2 µM | GI50 [18] > 100 µM | GI50 [19] 38.5 µM | GI50 [20] 46.5 µM | GI50 [21] 31.3 µM | GI50 [22] 18.6 µM | GI50 [23] > 100 µM | GI50 [24] 20.1 µM | GI50 [25] 18.3 µM | GI50 [26] 34.5 µM | GI50 [27] 26.1 µM | GI50 [28] > 100 µM | GI50 [29] 45.7 µM | GI50 [30] > 100 µM | GI50 [31] > 100 µM | GI50 [32] 90.1 µM | GI50 [33] 41.8 µM | GI50 [34] 38.3 µM | GI50 [35] 86.4 µM | GI50 [36] 38.4 µM | GI50 [37] > 100 µM | GI50 [38] 19.3 µM | GI50 [39] > 100 µM | GI50 [40] 39.8 µM | GI50 [41] > 100 µM | GI50 [42] 35.6 µM | GI50 [43] > 100 µM | GI50 [44] 67.8 µM | GI50 [45] 24.4 µM | GI50 [46] > 100 µM | GI50 [47] 31.4 µM | GI50 [48] 39.5 µM | GI50 [49] > 100 µM | GI50 [50] 28.5 µM | GI50 [51] 25 µM | GI50 [52] 20.4 µM | GI50 [53] > 100 µM | GI50 [54] 39.7 µM | GI50 [55] > 100 µM | GI50 [56] 56.9 µM | GI50 [57] > 100 µM
58.2 µM: TGI [22]
89.7 µM: TGI [45]
96.1 µM: TGI [25]
> 100 µM: TGI [1] | TGI [2] | TGI [3] | TGI [4] | TGI [5] | TGI [6] | TGI [8] | TGI [9] | TGI [10] | TGI [12] | TGI [13] | TGI [14] | TGI [15] | TGI [16] | TGI [18] | TGI [19] | TGI [20] | TGI [21] | TGI [23] | TGI [24] | TGI [26] | TGI [28] | TGI [29] | TGI [30] | TGI [31] | TGI [32] | TGI [33] | TGI [34] | TGI [35] | TGI [36] | TGI [37] | TGI [39] | TGI [40] | TGI [41] | TGI [42] | TGI [43] | TGI [44] | TGI [46] | TGI [47] | TGI [48] | TGI [49] | TGI [50] | TGI [51] | TGI [52] | TGI [53] | TGI [54] | TGI [55] | TGI [56] | TGI [57]
65.2 µM: TGI [7]
56.4 µM: TGI [17]
59.1 µM: TGI [38]
62 µM: TGI [27]
38 µM: TGI [11]

OCC1OC(N2C=C(c3nc4ccccc4s3)C3C=CC=CC32)C(O)C(O)C1O (stereo not given)
36.4 µM: TGI [38]
30.5 µM: TGI [45]
36.8 µM: TGI [56]
38.3 µM: TGI [2]
40.3 µM: TGI [42]
inactive: GI50 [1] 17.6 µM | GI50 [2] 16 µM | GI50 [3] 18.7 µM | GI50 [4] 14.7 µM | GI50 [58] 16.5 µM | GI50 [5] 16.9 µM | GI50 [7] 9.38 µM | GI50 [8] 20.6 µM | GI50 [9] 18.1 µM | GI50 [11] 11.5 µM | GI50 [12] 31.1 µM | GI50 [13] 17.1 µM | GI50 [14] 20.8 µM | GI50 [15] 9.51 µM | GI50 [16] 20.1 µM | GI50 [17] 19 µM | GI50 [18] 19.8 µM | GI50 [19] 19 µM | GI50 [20] 11 µM | GI50 [21] 10.9 µM | GI50 [22] 15.3 µM | GI50 [24] 18.1 µM | GI50 [25] 15.4 µM | GI50 [26] 11.8 µM | GI50 [27] 36.5 µM | GI50 [28] 14.5 µM | GI50 [29] 15.6 µM | GI50 [30] 24 µM | GI50 [31] > 50 µM | GI50 [32] > 50 µM | GI50 [33] 14.9 µM | GI50 [35] 16.5 µM | GI50 [36] 18.9 µM | GI50 [37] 13 µM | GI50 [38] 11.4 µM | GI50 [39] 18.9 µM | GI50 [40] 15 µM | GI50 [41] 13.4 µM | GI50 [42] 14.8 µM | GI50 [43] 31.7 µM | GI50 [44] 19.2 µM | GI50 [45] 12.1 µM | GI50 [46] 41.1 µM | GI50 [47] 28.8 µM | GI50 [48] 22.1 µM | GI50 [49] 18.1 µM | GI50 [50] 15.9 µM | GI50 [51] 21 µM | GI50 [53] 12.5 µM | GI50 [54] 16.6 µM | GI50 [55] 14.8 µM | GI50 [56] 12.5 µM | GI50 [57] 24.8 µM
42.9 µM: TGI [55]
24.3 µM: TGI [20]
20.9 µM: TGI [7]
28.1 µM: TGI [26]
32 µM: TGI [53]
30.2 µM: TGI [15]
26 µM: TGI [21]
> 50 µM: TGI [1] | TGI [3] | TGI [4] | TGI [58] | TGI [5] | TGI [8] | TGI [9] | TGI [12] | TGI [13] | TGI [14] | TGI [16] | TGI [17] | TGI [18] | TGI [19] | TGI [22] | TGI [24] | TGI [25] | TGI [27] | TGI [28] | TGI [29] | TGI [30] | TGI [31] | TGI [32] | TGI [33] | TGI [35] | TGI [36] | TGI [37] | TGI [39] | TGI [40] | TGI [43] | TGI [44] | TGI [46] | TGI [47] | TGI [48] | TGI [49] | TGI [50] | TGI [51] | TGI [54] | TGI [57]
42.4 µM: TGI [11]
37.9 µM: TGI [41]
